Experimental data published in patent US11058775B2, “Insulin dimer-incretin conjugates” (Merck Sharp & Dohme Corp., priority 2016, dated 2021).

Target: T1, human GCGR (Homo sapiens, UniProt P47871)
T1 construct: expressed in transfected cells; grown under Blasticidin and Hygromycin selection
Assay: cAMP activity assay, cells expressing human GCGR
Format: cell-based
Conditions: ratio of hGCGR EC50 to hGLP1R EC50, Table 7
Procedure: Activity of the peptides and the conjugates at the Glucagon receptor (GCGR) and GLP-1 receptor (GLP1R) may be measured in a cAMP activity assay as follows.
Peptides are dissolved in 100% DMSO and serially diluted to generate 10 point titrations. The peptide solutions are then transferred into 384-well assay plates (150 nL/well). Assay ready frozen cells expressing human GIPR, GLP1R or human GCGR are suspended in growth media consisting of DMEM medium (GIBCO), 10% FBS (GIBCO), 1×NEAA(GIBCO), 1×P/S (GIBCO), 10 μg/mL Blasticidin (GIBCO) and 200 μg/mL Hygromycin (GIBCO). […] The cell suspensions (15 μL) are then added to the assay plates containing the peptide solutions (30,000 cells/well for human GCGR; 10,000 cells/well for human GLP1R and 15,000 cells/well for human GIPR). The cells are incubated for one hour at room temperature in the dark.
Production of cAMP may be determined using HitHunter™ cAMPXS kits (DiscoverX) following the manufacturer's protocol. The plates are incubated for overnight at room temperature in the dark. Luminescence may be measured using an EnVision Multilabel plate reader (Perkin Elmer). Native GIP, GLP-1 and Glucagon (Bachem) may be used as control peptides. EC50 values may be calculated using uses a 4 parameter logistic fit based on the Levenberg-Marquardt algorithm.

T1 sequence (P47871 26-477): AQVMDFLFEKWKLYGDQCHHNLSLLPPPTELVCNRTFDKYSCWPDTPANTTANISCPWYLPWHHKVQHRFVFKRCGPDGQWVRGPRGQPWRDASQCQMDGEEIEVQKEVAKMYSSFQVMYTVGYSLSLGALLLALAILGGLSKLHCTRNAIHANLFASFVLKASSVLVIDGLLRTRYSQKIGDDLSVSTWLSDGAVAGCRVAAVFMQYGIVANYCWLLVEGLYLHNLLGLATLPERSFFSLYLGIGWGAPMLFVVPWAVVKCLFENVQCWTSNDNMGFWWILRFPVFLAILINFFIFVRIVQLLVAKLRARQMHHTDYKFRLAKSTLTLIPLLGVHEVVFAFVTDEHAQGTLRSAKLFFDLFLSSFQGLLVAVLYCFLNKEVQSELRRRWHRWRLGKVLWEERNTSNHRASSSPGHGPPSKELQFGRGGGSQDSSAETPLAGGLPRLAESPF

Question: With `CC(C)C[C@H](NC(=O)[C@H](Cc1ccc(O)cc1)NC(=O)[C@H](CCCCN)NC(=O)[C@H](CO)NC(=O)[C@H](CCCCN)NC(=O)[C@H](CC(=O)O)NC(=O)[C@H](CO)NC(=O)[C@@H](NC(=O)[C@H](Cc1ccccc1)NC(=O)[C@@H](NC(=O)CNC(=O)[C@H](CCC(N)=O)NC(=O)[C@@H](CO)NC(=O)[C@@H](N)Cc1c[nH]cn1)[C@@H](C)O)[C@@H](C)O)C(=O)N[C@@H](CC(=O)O)C(=O)N[C@@H](CCC(=O)O)C(=O)N[C@@H](CCCNC(=N)N)C(=O)N[C@@H](C)C(=O)N[C@@H](C)C(=O)N[C@@H](CCC(N)=O)C(=O)N[C@@H](CC(=O)O)C(=O)N[C@@H](Cc1ccccc1)C(=O)N[C@H](C(=O)N[C@@H](CCCCN=[N+]=[N-])C(=O)N[C@@H](Cc1c[nH]c2ccccc12)C(=O)N[C@@H](CC(C)C)C(=O)N[C@@H](CC(C)C)C(=O)N[C@@H](CC(=O)O)C(=O)N[C@H](C(N)=O)[C@@H](C)O)C(C)C` [PEP88] as the compound, how does the GCGR/GLP1R ratio read?
Answer: 0.97
